Measurements reported in patent US11173147B2, “Prophylactic or therapeutic agent for delirium” (priority 2016, dated 2021).

What was measured:
Clock mutant mouse = assay: Effect on phase delay in Clock mutant mouse (rotating basket exercise); type: in vivo; conditions: for % in the initial dark period (rotating basket exercise) / % in the initial dark period (rotating basket exercise), recovery of decrease: vs solvent; for % in the initial dark period (rotating basket exercise): FIG. 3; for exercise starting time: vs average of 7-day preliminary treatment period; for % in the initial dark period (rotating basket exercise), recovery of decrease: FIG. 1
Procedure: Effect on Phase Delay of Compound A in Clock Mutant Mouse
Male Clock mutant mouse (Trans Genic Inc.) and male ICR mouse (CLEA Japan Inc.) were used as a wild-type control in this study. All animals were bred in groups of 4 or 5 animals per cage in a light control room (lights on at 7:00 and 12 hour light/dark cycle) prior to behavioral test. Food and tap water were freely provided.
21-Week-old and 23-week-old mice were used in experiment 1 and experiment 2 (in each experiment, Clock mutant mouse; n=36, ICR mouse; n=12). In both experiments, the animals were placed in a test room and individually bred under 10 hr/14 hr light/dark cycle (lights on at 7:00 and lights off at 17:00) in a cage provided with a rotating basket (diameter 14.5 cm). In addition, 15 Clock mutant mice and 10 ICR mice were prepared as extra animals in the same room in each experiment. Data on the rotating basket exercise were collected every minute and analyzed using Clocklab (registered trade mark) (Actimetrics, Evanston, Ill., USA).
The animals were first acclimated to a new light/dark cycle for about 2 weeks. In the acclimation period, a total number of exercises in 24 hours (total number) for each day, and the percentage of the number of exercise in the light period (7:00 to 17:00) (percentage in the light period) in the total number were measured.
In the preliminary treatment period, the mice were orally administered with a solvent (0.5% methylcellulose solution) at 15:45-16:19 once daily for 2 weeks for acclimation to administration prior to the drug treatment period. […] The solvent or compound A was orally administered to the animals at 15:45 to 16:13 once a day for 7 days.
In the drug treatment period, % in the initial dark period was measured, and the exercise start time was measured using same as an additional index in the Clock mutant mice. Using the aforementioned parameter, the minimum effective dose of compound A in these experiments (experiments 1 and 2) was determined.
The data are shown in average ±SEM. A statistical significance between ICR mouse and Clock mutant mouse was determined by Student's t-test (experiment 1) or Aspin-Welch test (experiment 2) in which P≤0.05 was significant. For analysis of multiple administration of compound A, the statistical significance was determined by one-sided Williams' 20 test (experiments 1 and 2) in which P≤0.025 was significant.

plasma melatonin = assay: Effect on nocturnal plasma melatonin concentration in rats; type: in vivo, rat; conditions: Wistar rats, 3 mg/kg orally once per day for 7 days, vs vehicle, FIG. 5
Procedure: Effect of Compound A on Nocturnal Plasma Melatonin Concentration in Rats
9-Week-old male Wistar rats (CLEA Japan Inc.) were used for this study. All rats (n=12) were bred in groups of 2 to 5 animals per cage in a light control room (lights on at 7:00 and 12 hour light/dark cycle) prior to the test and made to get used to it for about two weeks. Food and tap water were freely provided.
A solvent or compound A was orally administered to 11-week-old rats at a dose of 3 mg/kg once per day at 17:00-17:15 for 7 days. After the final treatment, blood samples (500 μL) were successively collected from the tail artery of each rat at 20:00 (ZT (Zeitgeber Time)) 13), 22:00 (ZT15), 0:00 (ZT17), 2:00 (ZT19), 4:00 (ZT21), 6:00 (ZT23) and 8:00 (ZT25) in EDTA-2Na-containing tube (Lot No. MP0831, CAPIJECT (registered trade mark), Terumo Corporation, Japan). The blood samples were centrifuged at 15,000 rpm, 4° C. for 5 min and the supernatant (200 μL) was preserved at -80° C. until they were treated for radioimmunoassay. Melatonin concentration was measured using a kit (Lot No. 2428.10, BUHLMANN Laboratories AG, Switzerland) commercially available from T.N. TECHNOS., Limited, Japan.
The data are shown in average ±SEM (6 rats in each group). The statistical significance between samples and in samples was determined by repeated measurement ANOVA in which P<0.05 was significant.

delirium [1] = conditions: five patients diagnosed as having delirium; cited from earlier work
delirium [2] = conditions: of 10 patients over 65 years of age who developed delirium with heart failure etc.; cited from earlier work

Structure (SMILES) | % in the initial dark period (rotating basket exercise) (Clock mutant mouse; 0.003 mg/kg orally once a day for 7 days) | % in the initial dark period (rotating basket exercise) (Clock mutant mouse; 0.03 mg/kg orally once a day for 7 days) | exercise starting time (Clock mutant mouse; 0.03 mg/kg repetitive oral administration, FIG. 4) | % in the initial dark period (rotating basket exercise), recovery of decrease (Clock mutant mouse; 0.3 mg/kg orally once a day for 7 days) | exercise starting time (Clock mutant mouse; 0.3 mg/kg repetitive oral administration, FIG. 2) | % in the initial dark period (rotating basket exercise), recovery of decrease (Clock mutant mouse; 1 mg/kg orally once a day for 7 days) | exercise starting time (Clock mutant mouse; 1 mg/kg repetitive oral administration, FIG. 2) | minimum effective dose (phase retardation) (Clock mutant mouse; oral, once a day for 7 days) [mg/kg] | level of melatonin concentration (plasma) (plasma melatonin) | start of plasma melatonin (plasma melatonin) | recovery from delirium symptoms (delirium [1]) | patients in whom delirium was improved (delirium [2]) [patients]
CC(=O)NCC[C@@H]1CCc2ccc3nc(C)oc3c21 [compound A, (S)—N-[2-(2-methyl-7,8-dihydro-6H-indeno[5,4-d][1,3]oxazol-8-yl)ethyl]acetamide] | did not have a significant effect | did not have a significant effect | significantly advanced | improvement effect was significant | significantly advanced | improvement effect was significant | significantly advanced | 0.03 | significantly increased | advanced | – | –
CCC(=O)NCC[C@@H]1CCc2ccc3c(c21)CCO3 [ramelteon, (S)—N-[2-(1,6,7,8-tetrahydro-2H-indeno[5,4-b]furan-8-yl)ethyl]propionamide] | – | – | – | – | – | – | – | – | – | – | recovered from delirium symptoms the next day | 6
